Assay results published in PMC8095338 (Neuro-oncology Advances, 2021).
Like-named read-outs stand apart in the source and are kept apart here.

How the values were obtained:
[1] = Tissue PK, LC-MS/MS; type: in vivo, minipig; conditions: minipig, po, 7.3 mg/kg
Procedure: (§1) WT (n = 8) and NF1 (n = 8) minipigs received a single human equivalent oral dose of 450 mg (7.3 mg/kg). Untreated WT (n = 4) and NF1 (n = 4) minipigs were also enrolled as controls. All animals were euthanized 2 h after drug administration. Tissue samples were collected from each animal at the same approximate locations and divided for analysis.
Selumetinib PK studies were performed in plasma, skin, sciatic nerve, optic nerve, and brain. Plasma isolation was performed as described in a previous study.[13] […] Tissues were harvested and immediately transferred to cryovials and stored at −80°C until analysis.
Standard curves and controls were generated using corresponding untreated tissue. Skin tissue was treated with collagenase, and all organ tissues were homogenized. Liquid extraction with ethyl acetate was then performed, followed by analysis. […] The chromatographic separation was performed as described.[13] Mass spectrometric detection was performed using multiple reaction monitoring in positive ionization mode. […] Ion source gases 1 and 2 were set at 50 and 50 psi, respectively; the curtain gas was at 20 psi and the collision gas at 4 psi. […] Data acquisition was performed with analyst 1.4.1 software (MDS-SCIEX).

[2] = system: ERK phosphorylation (p-ERK); assay: Tissue PD: p-ERK/ERK by capillary western (Wes); type: in vivo, minipig; conditions: for inhibition at 7.3 mg/kg: Sus scrofa, po; for p-ERK Inhibition: ND = Not detected
Procedure: as §1
PD analysis in blood was performed as described in a previous study, with some modifications.[13] […] Samples were stimulated with phorbol 12-myristate 13-acetate (PMA) (200 nM) or phosphate-buffered saline for 10 min at 37°C within 1 h of being drawn. Red blood cells were removed using standard ammonium-chloride-potassium (ACK) lysis. Peripheral blood mononuclear cells (PBMCs) were snap-frozen as dry pellets and stored at −80°C until analysis. Protein lysates from PBMCs were prepared as described in a previous study.[13] For tissues, protein lysates were prepared by transferring ~[…] of snap frozen tissue to a 1.7-mL microfuge tube containing radioimmunoprecipitation lysis buffer with protease and phosphatase inhibitors. The samples were then homogenized using a rotor-stator homogenizer for 2–4 cycles of 20 s and centrifuged for 10 min at 4°C. Concentrations were measured using the Pierce BCA Protein assay kit (Thermo #23227), according to the manufacturer’s instructions. A capillary western blot assay was performed on a Wes system (ProteinSimple 004–600) according to the manufacturer’s instructions using a 12–230 kDa Separation Module (ProteinSimple SM-W004) and Anti-Rabbit Detection Module (ProteinSimple DM-001). Lysates were loaded at 1 mg/mL and instrument default settings were used. Primary antibodies against Phospho-p44/42 ERK1/2 (p-ERK) (Cell Signaling Technologies #4370S) and p44/42 ERK1/2 (ERK) (Cell Signaling Technologies #4695S) were used at 1:100 dilution. Peaks of the appropriate molecular weight (42/44 kilodaltons) were detected in the resulting electropherograms and chemiluminescent signal was quantified by calculating the area under the peaks. The relative intensity of p-ERK to total ERK was then calculated as a ratio (p-ERK/ERK). To discriminate low p-ERK signals from background, the peak signal-to-noise (S/N) ratio given by the software was ≥10, and the peak height/baseline ratio was ≥3.[27]

[3] = system: p-ERK; assay: Immunohistochemistry for p-ERK in minipig tissues; type: in vivo
Procedure: Formalin-fixed paraffin-embedded minipig tissue including cerebral cortex, cross sections of optic nerve and sciatic nerve, and skin were sectioned. Immunohistochemical staining for phosphor-p44/p42 MAPK (ERK1/2) (Thr202/Tyr204) (Cell Signaling Technology Catalog #4370, Rabbit mAb, 1:100 dilution) was performed using 5 μm sections on a Thermo Fisher Scientific Autostainer 360 (Thermo Fisher Scientific). […] In the skin, epidermis was scored as no (0) or low (1) (<20 epidermal cells per 400× magnification) or high (2) (>20 epidermal cells per 400× magnification) immunoreactivity.

[4] = cited from earlier work; for maximum tolerated dose: twice daily
[5] = cited from earlier work
[6] = pediatric patients, 25 mg/m^2, plasma, median (range), ref 6
[7] = pediatric patients, 25 mg/m^2, plasma, median (range), ref 7

Compound: Cn1cnc2c(F)c(Nc3ccc(Br)cc3Cl)c(C(=O)NOCCO)cc21 [selumetinib]
- concentration at 2 h ([1]; cerebral cortex, Selumetinib concentration in tissues, Cerebral cortex, Median (All), all 16 minipigs, 2 h after single oral 7.3 mg/kg): 66 ng/g
- concentration at 2 h ([1]; cerebral cortex, Selumetinib concentration in tissues, Cerebral cortex, Median (NF1), NF1 minipigs n = 8, 2 h after single oral 7.3 mg/kg): 66 ng/g
- concentration at 2 h ([1]; cerebral cortex, Selumetinib concentration in tissues, Cerebral cortex, Median (WT), WT minipigs n = 8, 2 h after single oral 7.3 mg/kg): 43 ng/g
- concentration at 2 h ([1]; optic nerve, Selumetinib concentration in tissues, Optic nerve, Median (All), all 16 minipigs, 2 h after single oral 7.3 mg/kg): 43 ng/g
- concentration at 2 h ([1]; optic nerve, Selumetinib concentration in tissues, Optic nerve, Median (NF1), NF1 minipigs n = 8, 2 h after single oral 7.3 mg/kg): 43 ng/g
- concentration at 2 h ([1]; optic nerve, Selumetinib concentration in tissues, Optic nerve, Median (WT), WT minipigs n = 8, 2 h after single oral 7.3 mg/kg): 29 ng/g
- concentration at 2 h ([1]; selumetinib concentration, range over all tissues, cerebral cortex, optic nerve, sciatic nerve, skin, all minipigs, 2 h after single oral 7.3 mg/kg): 4 to 155 ng/g
- concentration at 2 h ([1]; sciatic nerve, Selumetinib concentration in tissues, Sciatic nerve, Median (All), all 16 minipigs, 2 h after single oral 7.3 mg/kg): 23 ng/g
- concentration at 2 h ([1]; sciatic nerve, Selumetinib concentration in tissues, Sciatic nerve, Median (NF1), NF1 minipigs n = 8, 2 h after single oral 7.3 mg/kg): 25 ng/g
- concentration at 2 h ([1]; sciatic nerve, Selumetinib concentration in tissues, Sciatic nerve, Median (WT), WT minipigs n = 8, 2 h after single oral 7.3 mg/kg): 26 ng/g
- concentration at 2 h ([1]; skin, Selumetinib concentration in tissues, Skin, Median (All), all 16 minipigs, 2 h after single oral 7.3 mg/kg): 34 ng/g
- concentration at 2 h ([1]; skin, Selumetinib concentration in tissues, Skin, Median (NF1), NF1 minipigs n = 8, 2 h after single oral 7.3 mg/kg): 56 ng/g
- concentration at 2 h ([1]; skin, Selumetinib concentration in tissues, Skin, Median (WT), WT minipigs n = 8, 2 h after single oral 7.3 mg/kg): 21 ng/g
- inhibition at 7.3 mg/kg ([2]; 2 h, NF1 minipigs, cerebral cortex, 2 h after single oral 7.3 mg/kg, vs untreated controls, change not significant, read-out: p-ERK Inhibition): 71%
- inhibition at 7.3 mg/kg ([2]; 2 h, NF1 minipigs, optic nerve, 2 h after single oral 7.3 mg/kg, vs untreated controls, read-out: p-ERK Inhibition): 60%
- inhibition at 7.3 mg/kg ([2]; 2 h, NF1 minipigs, sciatic nerve, 2 h after single oral 7.3 mg/kg, vs untreated controls, read-out: p-ERK Inhibition): 60%
- inhibition at 7.3 mg/kg ([2]; 2 h, WT minipigs, sciatic nerve, 2 h after single oral 7.3 mg/kg, vs untreated controls, read-out: p-ERK Inhibition): 67%
- inhibition at 7.3 mg/kg ([2]; 2 h, all minipigs (WT and NF1), 2 h after single oral 7.3 mg/kg, read-out: mean inhibition of p-ERK in sciatic nerve): 64%
- inhibition at 7.3 mg/kg ([2]; 2 h, all minipigs (WT and NF1), 2 h after single oral 7.3 mg/kg, read-out: mean inhibition of p-ERK in skin): 95%
- p-ERK Inhibition ([2]; WT minipigs, cerebral cortex (subcortical white matter), 2 h after single oral 7.3 mg/kg, vs untreated controls): not observed
- p-ERK Inhibition ([2]; WT minipigs, optic nerve, 2 h after single oral 7.3 mg/kg, vs untreated controls): not observed
- mean inhibition of p-ERK in skin ([2]; all minipigs (WT and NF1), 2 h after single oral 7.3 mg/kg, 7.3 mg/kg): 94%
- p-ERK level in skin after selumetinib ([2]; all minipigs, single oral 7.3 mg/kg, 2 h, compared to untreated minipigs): nearly undetectable levels
- p-ERK by IHC in glial cells ([3]; NF1 minipig tissues, treated vs untreated): reduction in ERK phosphorylation
- treated NF1 animals without reduction in ERK phosphorylation by IHC ([3]; cerebral white matter tracts, NF1 minipigs): 4 of 8
- maximum tolerated dose ([4]; adult patients with advanced solid malignancy): 75 mg
- maximum tolerated dose ([4]; pediatric patients with plexiform neurofibroma or low-grade glioma): 25 mg/m^2
- confirmed partial response ([4]; pediatric patients, 25 mg/m^2 twice daily): 70 % of pediatric patients
- AUC0→∞ ([5]; human, in vivo, 75 mg): 4510 (19.2) hour × ng/mL
- AUC0-∞ (systemic exposure) ([5]; human, in vivo): 4510 to 6335 ng·h/mL
- AUC0-∞ (systemic exposure) ([5]; pediatric NF1 patients): 2520 to 3855 ng·h/mL
- median maximum concentration (Cmax) in plasma ([5]; pediatric dose 25 mg/m^2): 886 ng/mL
- AUC0→∞ [5, 6]: 2520 (2341–3280) hour × ng/mL
- Cmax [5, 6]: 886 (790–1200) ng/mL
- T1/2 [5, 6]: 6.5 (4.7–15.8) hours
- AUC0→∞ [5, 7]: 3855 (1780–7250) hour × ng/mL
- Cmax [5, 7]: 1400 (306–3570) ng/mL
- Tmax [5, 7]: 1.4 (1.0–4.0) hours
